pIC50: −log10 of the molar value.
Tested on: 997726-040-R-J2-PDC tumor spheroids, viability
Assay: Anticancer human tumor 997726-040-R-J2-PDC patient-derived squamous cell lung carcinoma cell line growth inhibition [PI3K]
Conditions: spheroids with HUVEC and MSC; for pIC50: curve of first compound; for viability, T/C: stronger effect = lower value
How it was run: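 Multi-cell spheroids combine tumor cells with HUVEC and human MSCs, treated with targeted agents alone or with inavolisib, alpelisib, duvelisib or copanlisib. Concentrations fall in half-log steps from at or near clinical Cmax, or from 10 microM where Cmax is unknown; viability read-out.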
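Further: spheroids exposed to compounds for seven days before readout.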

SMILES: CC(Cn1ccc(-c2ccc(C#N)c(Cl)c2)n1)NC(=O)c1cc(C(C)O)[nH]n1 (configuration not stated) + CC(Nc1ncnc2nc[nH]c12)c1cc2cccc(Cl)c2c(=O)n1-c1ccccc1
- pIC50 (second compound 0.0316 µM): < 5.00
- pIC50 (second compound 0.1 µM): < 5.00
- pIC50 (second compound 0.316 µM): < 5.00
- pIC50 (second compound 1 µM): < 5.00
- pIC50 (second compound 3.16 µM): < 5.00
- pIC50 (second compound 10 µM): < 5.00
- viability, T/C (second compound 0.0316 µM, first compound 0.0316 µM): 100%
- viability, T/C (second compound 0.0316 µM, first compound 0.1 µM): 88.5%
- viability, T/C (second compound 0.0316 µM, first compound 0.316 µM): 104%
- viability, T/C (second compound 0.0316 µM, first compound 1 µM): 109%
- viability, T/C (second compound 0.0316 µM, first compound 3.16 µM): 100%
- viability, T/C (second compound 0.0316 µM, first compound 10 µM): 105%
- viability, T/C (second compound 0.1 µM, first compound 0.0316 µM): 108%
- viability, T/C (second compound 0.1 µM, first compound 0.1 µM): 100%
- viability, T/C (second compound 0.1 µM, first compound 0.316 µM): 109%
- viability, T/C (second compound 0.1 µM, first compound 1 µM): 96.4%
- viability, T/C (second compound 0.1 µM, first compound 3.16 µM): 116%
- viability, T/C (second compound 0.1 µM, first compound 10 µM): 108%
- viability, T/C (second compound 0.316 µM, first compound 0.0316 µM): 94.3%
- viability, T/C (second compound 0.316 µM, first compound 0.1 µM): 92.1%
- viability, T/C (second compound 0.316 µM, first compound 0.316 µM): 95.1%
- viability, T/C (second compound 0.316 µM, first compound 1 µM): 92.6%
- viability, T/C (second compound 0.316 µM, first compound 3.16 µM): 101%
- viability, T/C (second compound 0.316 µM, first compound 10 µM): 98.2%
- viability, T/C (second compound 1 µM, first compound 0.0316 µM): 93.9%
- viability, T/C (second compound 1 µM, first compound 0.1 µM): 88.4%
- viability, T/C (second compound 1 µM, first compound 0.316 µM): 91.6%
- viability, T/C (second compound 1 µM, first compound 1 µM): 87.2%
- viability, T/C (second compound 1 µM, first compound 3.16 µM): 91.5%
- viability, T/C (second compound 1 µM, first compound 10 µM): 88.2%
- viability, T/C (second compound 3.16 µM, first compound 0.0316 µM): 78.1%
- viability, T/C (second compound 3.16 µM, first compound 0.1 µM): 70.5%
- viability, T/C (second compound 3.16 µM, first compound 0.316 µM): 71.2%
- viability, T/C (second compound 3.16 µM, first compound 1 µM): 68.9%
- viability, T/C (second compound 3.16 µM, first compound 3.16 µM): 80.9%
- viability, T/C (second compound 3.16 µM, first compound 10 µM): 72.5%
- viability, T/C (second compound 10 µM, first compound 0.0316 µM): 51.5%
- viability, T/C (second compound 10 µM, first compound 0.1 µM): 56.2%
- viability, T/C (second compound 10 µM, first compound 0.316 µM): 48.9%
- viability, T/C (second compound 10 µM, first compound 1 µM): 53.7%
- viability, T/C (second compound 10 µM, first compound 3.16 µM): 51.5%
- viability, T/C (second compound 10 µM, first compound 10 µM): 52.8%

Source: PubChem BioAssay AID1963964 (Molecular Pharmacology Branch, DTP, NCI, 2024)
